Measured values as given in patent publication US12522596B2, “Compounds as GLP-1R agonists” (Terns Pharmaceuticals, Inc., priority 2021, dated 2026).
“And” between values parts separate entries of the source, which are not always exact repeats. Equal values may be shown once. Read-outs that look alike come from different tables or passages of the source. Marks after values point to notes of the source that are not given here.

Assay: Pharmacokinetics in hGLP-1R mice after oral dosing
Type: in vivo, male C57BL/6J hGLP-1R mouse
Description: IPGTT (120 min)—PK bleeding: 40 μL blood samples (all treatment groups) were collected from mice under the jaw at IPGTT-120 min after blood glucose measurement into pre-chilled EDTA-2K tubes. Blood samples were processed for plasma by centrifugation at 4° C., 3200×g for 10 min. 15 μL plasma was stored at −80° C. for PK analysis. From 4 mice in Group 7 of the PD cohort, whole brain was collected after blood is harvested at 120 min post dose, rinsed with saline and patted dry and placed into a pre-weighed tube and stored at −80° C. collected for PK analysis.
PK bleeding group design is described in Table 9.
PK bleeding: 30 μL blood was collected at 0.25, 0.5, 1, 2, 4, and 8 h. Blood samples were processed for plasma by centrifugation at 4° C., 3200×g for 10 min. 12 μL plasma was collected at −80° C. for further analysis. From 3 mice in Group 7 of the PK cohort, whole brain was collected after blood is harvested at 8 hr post dose, rinsed with saline and patted dry and placed into a pre-weighed tube and stored at −80° C. collected for PK analysis.
For plasma: An aliquot of 3 μL sample was protein precipitated with 60 μL internal standard (100 ng/mL Labetalol & 100 ng/ml Dexamethasone & 100 ng/ml Tolbutamide & 100 ng/mL Verapamil & 100 ng/ml Glyburide & 100 ng/ml Celecoxib in ACN) and then the mixture was vortex-mixed for 10 min at 800 rpm and centrifuged for 15 min at 3220×g, 4° C.
The linear/log trapezoidal rule was applied in obtaining the PK parameters. Individual plasma concentration values that were below the lower limit of quantitation (LOQ) were excluded from the PK parameter calculation. The nominal dose levels and nominal sampling times were used in the calculation of all pharmacokinetic parameters.

[1] = hGLP-1R mouse plasma, PO 0.3 mg/kg, individual mice, 0.3 mg/kg
[2] = hGLP-1R mouse plasma, PO 0.3 mg/kg, mean
[3] = hGLP-1R mouse plasma, PO 1 mg/kg, individual mice, 1 mg/kg
[4] = hGLP-1R mouse plasma, PO 1 mg/kg, mean

SMILES: N#Cc1ccc(COc2cccc(C3CCN(Cc4nc5ccc(C(=O)O)cc5n4C[C@@H]4CCO4)CC3)n2)c(F)c1 [Reference Compound A, reference compound]
- increase of exposure with dose (dose proportionality) (hGLP-1R mice, PO, Reference Compound A 0.3-1 mg/kg, Compound 2 0.3-3 mg/kg): approximately dose proportional manner
- Concentration (hGLP-1R mouse plasma collected at 120 min (IPGTT cohort), PO 0.3 mg/kg, individual animals, 0.3 mg/kg): 8.61 ng/mL and 8.10 ng/mL and 5.55 ng/mL and 7.19 ng/mL and 6.60 ng/mL and 6.14 ng/mL
- Concentration (hGLP-1R mouse plasma collected at 120 min (IPGTT cohort), PO 1 mg/kg, individual animals, 1 mg/kg): 29.7 ng/mL and 31.0 ng/mL and 17.9 ng/mL and 14.2 ng/mL and 15.9 ng/mL and 14.9 ng/mL and 26.5 ng/mL
- Concentration (hGLP-1R mouse plasma, PO 0.3 mg/kg, 0.25 h, individual animals, 0.3 mg/kg): 11.2 ng/mL and 16.7 ng/mL and 46.8 ng/mL
- Concentration (hGLP-1R mouse plasma, PO 0.3 mg/kg, 0.5 h, individual animals, 0.3 mg/kg): 17.6 ng/mL and 14.6 ng/mL
- Concentration (hGLP-1R mouse plasma, PO 0.3 mg/kg, 1 h, individual animals, 0.3 mg/kg): 13.4 ng/mL and 23.5 ng/mL and 11.1 ng/mL
- Concentration (hGLP-1R mouse plasma, PO 0.3 mg/kg, 2 h, individual animals, 0.3 mg/kg): 2.43 ng/mL and 4.91 ng/mL and 2.76 ng/mL
- Concentration (hGLP-1R mouse plasma, PO 0.3 mg/kg, 4 h, individual animals, 0.3 mg/kg): BQL
- Concentration (hGLP-1R mouse plasma, PO 0.3 mg/kg, 8 h, individual animals): BQL
- Tlast (hGLP-1R mouse plasma, PO 0.3 mg/kg, individual mice): 2.00 h
- AUC0-inf [1]: 22.9 ng·h/mL and 40.5 ng·h/mL and 19.4 ng·h/mL
- AUC0-last [1]: 21.2 ng·h/mL and 35.4 ng·h/mL and 17.0 ng·h/mL
- AUCExtra [1]: 7.39% and 12.7% and 12.4%
- AUMCExtra [1]: 21.1% and 35.8% and 32.0%
- Cmax [1]: 19.6 ng/mL and 46.8 ng/mL and 14.6 ng/mL
- MRT0-inf [1]: 1.08 h and 1.11 h
- MRT0-last [1]: 0.797 h and 0.861 h
- T1/2 [1]: 0.727* h and 0.602 h
- Tmax [1]: 0.250 h
- AUCExtra [2]: 10.8%
- AUMCExtra [2]: 29.6%
- Tlast [2]: 2.00 h
- Concentration (hGLP-1R mouse plasma, PO 1 mg/kg, 0.25 h, individual animals, 1 mg/kg): 31.9 ng/mL and 31.8 ng/mL
- Concentration (hGLP-1R mouse plasma, PO 1 mg/kg, 0.5 h, individual animals, 1 mg/kg): 40.2 ng/mL and 41.2 ng/mL
- Concentration (hGLP-1R mouse plasma, PO 1 mg/kg, 1 h, individual animals, 1 mg/kg): 48.7 ng/mL and 23.7 ng/mL and 46.0 ng/mL
- Concentration (hGLP-1R mouse plasma, PO 1 mg/kg, 2 h, individual animals, 1 mg/kg): 22.4 ng/mL and 5.72 ng/mL and 15.4 ng/mL
- Concentration (hGLP-1R mouse plasma, PO 1 mg/kg, 4 h, individual animals, 1 mg/kg): BQL and 3.21 ng/mL
- Concentration (hGLP-1R mouse plasma, PO 1 mg/kg, 8 h, individual animals): BQL
- AUC0-inf [3]: 86.4 ng·h/mL and 89.9 ng·h/mL
- AUC0-last [3]: 68.7 ng·h/mL and 86.7 ng·h/mL
- AUCExtra [3]: 3.91% and 20.5% and 3.54%
- AUMCExtra [3]: 13.8% and 58.3% and 18.2%
- Cmax [3]: 40.2 ng/mL and 46.0 ng/mL
- MRT0-inf [3]: 1.45 h and 4.55 h and 2.05 h
- MRT0-last [3]: 2.39 h and 1.74 h
- T1/2 [3]: 0.791 h and 3.42* h and 1.77* h
- Tlast [3]: 4.00 h and 8.00 h (2×)
- Tmax [3]: 1.00 h
- AUCExtra [4]: 9.32%
- AUMCExtra [4]: 30.1%
- AUC(0-t) (male, C57BL/6J hGLP-1R, mouse, plasma, po, 0.3 mg/kg, hGLP-1R mice, total, PO 0.3 mg/kg, read-out: AUClast Mean): 24.5 ng·h/mL
- Cmax (male, C57BL/6J hGLP-1R, mouse, plasma, po, 0.3 mg/kg, hGLP-1R mice, total, PO 0.3 mg/kg, read-out: Cmax Mean): 27 ng/mL
- half-life (male, C57BL/6J hGLP-1R, mouse, plasma, po, 0.3 mg/kg, hGLP-1R mice, total, PO 0.3 mg/kg, read-out: T1/2 (converted)): 0.604 h
- Tmax (male, C57BL/6J hGLP-1R, mouse, plasma, po, 0.3 mg/kg, hGLP-1R mice, total, PO 0.3 mg/kg, read-out: Tmax Median): 0.5 h
- concentration at 120 min (male, C57BL/6J hGLP-1R, mouse, plasma, po, 0.3 mg/kg, hGLP-1R mouse plasma collected at 120 min (IPGTT cohort), PO 0.3 mg/kg, individual animals, read-out: Concentration): 7.91 ng/mL
